Measurements taken from patent US11147859B2, “Diffusion enhancing compounds and their use alone or with thrombolytics” (Diffusion Pharmaceuticals LLC, priority 2009, dated 2021).
“And” between values parts separate entries of the source, which are not always exact repeats. Equal values may be shown once. “Also recorded” adds a separate entry of the source.

Experiments:
[1] = tested on: rabbit small clot embolic stroke model (RSCEM); experiment: Rabbit small clot embolic stroke model (RSCEM), quantal dose-response analysis of behavior; format: in vivo, Male New Zealand white rabbits; details: TSC 0.25 mg/kg IV bolus 1 hour post-embolization; behavior measured 24 hours following embolization; Mean±SEM
Text: Methods: This model uses rabbits and is known as RSCEM. Male New Zealand white rabbits were anesthetized using isoflurane (5% induction, 2% maintenance by facemask), the bifurcation of the right carotid artery was exposed and the external carotid was ligated just distal to the bifurcation, where a catheter was inserted into the common carotid and secured with ligatures. The incision was closed around the catheter with the distal ends left accessible outside the neck; the catheter was filled with heparinized saline and plugged with an injection cap. Rabbits were allowed to recover from anesthesia for a minimum of 2 h until they behaved normally. […] Microclots were re-suspended in PBS, then washed and allowed to settle, followed by aspiration of the supernatant and spiking of the microclots with tracer quantities of 15-μm radiolabeled microspheres. The specific activity of the particles was determined by removing an aliquot, after which appropriate volumes of PBS solution were added so that a predetermined weight of clot particles were rapidly injected through the catheter and both the syringe and catheter were flushed with 5 ml of normal saline. […]
These parameters are measures of the amount of microclots (in mg) that produce neurologic dysfunction in 50% of a group of animals (P50). The P50 values are then calculated as described previously and are presented as Mean±SEM. […]

[2] = tested on: collagenase-injection model of ICH; experiment: Collagenase-injection model of intracranial hemorrhage (ICH); format: in vivo, Sprague-Dawley rats
Description: Twelve male, Sprague-Dawley rats (Taconic, Inc.), weighing between 250 to 300 Grams were fed ad libitum and maintained on a 12-hour light/dark cycle. The rats were randomly assigned to 1 of 2 groups as follows: TSC-treated group (n=6) receiving intravenous infusion of TSC (total dose 0.091 mg/kg) and a Control group receiving intravenous infusion of 0.9% normal saline. A collagenase-injection model of ICH was utilized. Animals were anesthetized for 5 minutes with 5% halothane and endotracheally intubated. Anesthesia was maintained under 1 to 1.5% halothane with ventilation supported using Fi02 of 50%. Tail artery cannulation was applied to monitor the blood pressure and arterial blood gas, and a rectal temperature probe monitored body temperature. The right femoral vein was cannulated and connected to a microinjection infusion pump for TSC or saline administration. Body temperature was maintained at 37° C. with a heating pad. Rats were secured into a stereotactic frame with a midline incision over the skull and a cranial burr hole of 1 mm in diameter was drilled with 0.2 mm anterior and 3.5 mm right lateral to Bregma. A 26-gauge needle was inserted stereotactically into the right basal ganglion (5.5 mm ventral) and 5 μL collagenase (0.05 U bacteria collagenase; type IV, Sigma Chemical Co.) was infused at a rate of 1 μL/min using a microinfusion pump. The needle was kept in the striatum for an additional 5 minutes to limit collagenase flow back into the burr hole. After withdrawing the needle, the craniotomy was sealed with bone wax and the wound was sutured closed. TSC was injected intravenously 3 hours after ICH at a final total dosage of 0.091 mg/kg. The TSC formulation used was the sterile lyophilized TSC injectable formulation which was reconstituted with sterile water for injection and diluted with deionized water pH'd to 8.0 with dilute sodium carbonate. […] The outcomes assessed 48 hours post-ICH included hematoma volume, hemoglobin content representing hemorrhagic volume in the injected striatum, and tissue edema. […] Using Meta Morph image analysis software, the hemorrhage area for each section was measured and the total hematoma volume was calculated by summing the clot area in each section and multiplying by the thickness of the sections. A tissue edema index was calculated in each rat by measuring and comparing both of the hemispheres (Edema Index=(R−L)×100/L, R is right hemisphere volume, L is left hemisphere volume). A hemorrhagic volume index was quantified by measuring hemoglobin content in the injected hemisphere. […] This reaction converts hemoglobin to cyanomethemoglobin, the concentration of which can be assessed by the optical density (OD) of the solution at 550 nm wavelength. […]

[3] = tested on: ischemic tissue in brain sections; experiment: Ischemic stroke model: middle cerebral artery and two carotid arteries ligated for 2 hours; format: in vivo; details: TSC 0.1 mg/kg given after removal of 2 hour ligature; rats sacrificed after 24 hours
Description: In order to find new drugs for stoke victims, different animal models of ischemic stroke are used. In one model, blood vessels (middle cerebral artery, two carotid arteries) are ligated for a period of 2 hours. The ligature is then removed, a drug is given, and the animals (rats in this case) are sacrificed after 24 hours. The brain sections are stained and examined in order to determine the amount of damaged (ischemic) tissue.

[4] = Solubility of TSC in aqueous cyclodextrin solutions; format: physicochemical
[5] = Stability of TSC in formulation as a function of pH; format: physicochemical; details: formulation with glycine buffer; pH around 8.2+/-0.5 required
[6] = Absorption of TSC into the blood stream after intramuscular injection with gamma cyclodextrin; format: in vivo; details: rats
[7] = TSC 0.1 mg/kg, rat collagenase model (summary in description)

## CC(/C=C/C=C(\C)C(=O)[O-])=C\C=C\C=C(C)\C=C\C=C(/C)C(=O)[O-].[Na+].[Na+] [TSC, trans sodium crocetinate]
[1]
  P50 (amount of microclots that produces neurologic dysfunction in 50% of a group of animals): 2.84±1.01 mg and 2.84±0.51 mg
[2]; [7]
  hemorrhage volume (amount of blood that hemorrhages into the brain): decrease
  reduction in amount of edema caused by the hemorrhagic stroke: about 50%
[2]; TSC total dose 0.091 mg/kg IV starting 3 hours after ICH, assessed 48 hours post-ICH, n=6, 0.091 mg/kg
  hematoma volume/size after ICH vs saline control: slightly, but not statistically significantly, reduced; also recorded: did not differ
[2]; TSC total dose 0.091 mg/kg IV starting 3 hours after ICH, assessed 48 hours post-ICH, n=6, p<0.05
  reduction in hemorrhagic volume (tissue hemoglobin content) vs saline control: approximately 20%
[3]
  reduction in the amount of ischemic tissue: about 60%
[4]; TSC and gamma-cyclodextrin
  TSC concentration reached in aqueous solution: ≤ 44 milligrams of TSC per ml of solution
[4]; TSC formulated with a cyclodextrin and mannitol
  TSC concentration reached in solution: over 20 mg TSC/ml of solution
[5]
  stability versus pH: more stable at higher pHs
[6]
  absorption into the blood stream: quick
